Experiments:
DUSP1 = assay: RT-PCR of DUSP1 in human monocytic cell lines stimulated with PMA; assay type: cell-based; details: five human monocytic cell lines, 20 nM PMA
FOS = assay: RT-PCR of FOS in human monocytic cell lines stimulated with PMA; assay type: cell-based; details: five human monocytic cell lines, 20 nM PMA
Source text: FIGS. 2A-2D are digital images and graphs showing expression of FOS in human carotid plaque macrophages and in activated human monocytic cells and ApoE KO mouse splenocytes. FIG. 2A is a digital image of fresh frozen sections of human carotid artery plaques stained with hematoxylin and eosin (H&E), negative control immunoglobulin (Control Ig) and antibodies against CD14 or FOS. CD14+ staining of macrophages colocalizes with FOS immunoreactivity (25× magnification). Note that the CD14 staining gives a more diffuse appearance consistent with cell surface plasma membrance staining while the FOS pattern is more punctate consistent with nuclear localization. For the digital image shown as FIG. 2B, from four patients, the corresponding mononuclear cell (MNC), circulating monocyte (Mono) and carotid plaque purified macrophage (Mac) preparations were used for quantitative RT-PCR. The normalized expression levels shown were obtained as described in FIG. 1A. Note the progressively higher pattern of candidate gene expression associated with increasing concentration of monocytes and activation into macrophages. […] Values expressed as mean±SE, P=0.04. […]
Quantitative real-time RT-PCR: mRNA from lystates (10^5 cells) were purified by binding to poly(dT) magnetic beads (Dynal Biotech Inc. Brown Deer, Wis.) and reverse transcribed using Superscript II (Invitrogen, Carlsbad, Calif.). […]

FOS protein = FOS protein level by Western blot in PMA-stimulated THP1 cells; assay type: cell-based, human; details: 1 mM mevalonate added with simvastatin, 20 hours before PMA
THP1 cells = assay: Monocyte adhesion of PMA-stimulated THP1 cells to plastic substratum; assay type: cell-based, human
Description: (§1) FIGS. 3A-3B are digital images and graphs showing the functional effects of statin and FOS siRNA inhibition on monocyte activation by PMA. FIG. 3A is a bar graph and a digital image wherein THP1 cells were pretreated with simvastatin and/or mevalonate for 20 hours prior to stimulation with 2 nM PMA. Cell adhesion was determined 4 hours after PMA stimulation; cumulative MCP-1 release into medium was assayed 24 hours after PMA stimulation. […] P values for the difference in cell adhesion and MCP-1 release after statin treatment were 0.004 and 0.04, respectively. FIG. 3B is a bar graph and a digital image wherein THP1 cells were stimulated with 2 nM PMA 30 minutes after siRNA transfection for 4 hours. Control (−) cells were mock transfected without siRNA as a transfection control. […]
(§2) Monocyte function: For pretreatment experiments, cells were incubated with 10 μM simvastatin and/or 1 mM mevalonate for 20 hours prior to stimulation with phorbol 12-myristate 13-acetate (PMA, Sigma, St. Louis, Mo.). Cell adhesion was determined by gently washing off the nonadherent cells twice and pooling them. […] Viable nonadherent and adherent cells were counted using Trypan Blue dye. Cumulative MCP-1 release into the medium was determined using the MCP-1 immunoassay kit (R& D Systems, Minneapolis, Minn.) after 24 hours PMA stimulation.

MCP-1 = assay: Cumulative MCP-1 release into medium by PMA-stimulated THP1 cells (immunoassay); assay type: cell-based, human
Description: as §1, §2

[1] = 1 mM mevalonate in medium with simvastatin, 20 hours before PMA

CCCCCCCCCCCCCC(=O)O[C@@H]1[C@@H](C)[C@@]2(O)[C@@H](C=C(CO)C[C@]3(O)C(=O)C(C)=C[C@@H]23)[C@@H]2C(C)(C)[C@]12OC(C)=O [PMA, phorbol 12-myristate 13-acetate]
DUSP1 expression after PMA stimulation (DUSP1): repressed in two of the cell lines | FOS expression after PMA stimulation (FOS): uniformly induced in all five cell lines

CC(O)(CCO)CC(=O)O (stereo not shown) [mevalonate]
effect on statin-induced reduction in FOS protein (FOS protein): reversed | effect on statin-induced reduction in monocyte adhesion (THP1 cells; [1]): specifically reversed | effect on statin-induced reduction in MCP-1 release (MCP-1; [1]): specifically reversed

CCC(C)(C)C(=O)O[C@H]1C[C@@H](C)C=C2C=C[C@H](C)[C@H](CC[C@@H]3C[C@@H](O)CC(=O)O3)[C@H]21 [statins, simvastatin]
reduction in monocyte adhesion to plastic substratum compared to control (THP1 cells; 10 μM simvastatin pretreatment 20 hours, 2 nM PMA, 4 hours after PMA, P=0.004): approximately 70% | reduction in MCP-1 release into medium compared to control (MCP-1; 10 μM simvastatin pretreatment 20 hours, 2 nM PMA, 24 hours after PMA, P=0.04): approximately 70%

From patent publication US7998682B2, “Method for assessing atherosclerosis by measuring expression of FOS or DUSP1 in monocytes” (The United States of America as represented by the …, priority 2004, dated 2011)
